Source: paper PMC4255150 (Structure (London, England : 1993), 2014)

Molecular target: T1, AmiA (Bacteroides uniformis, UniProt A0ABC9NAU1)
T1 sequence (A0ABC9NAU1 24-262): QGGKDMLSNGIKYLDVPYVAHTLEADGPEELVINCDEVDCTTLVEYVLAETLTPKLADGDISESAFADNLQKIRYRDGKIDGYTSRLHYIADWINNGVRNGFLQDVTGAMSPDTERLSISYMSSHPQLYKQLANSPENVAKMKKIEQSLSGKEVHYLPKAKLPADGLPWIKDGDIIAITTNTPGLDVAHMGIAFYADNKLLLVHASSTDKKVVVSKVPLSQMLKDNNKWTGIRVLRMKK
Assay: HPLC inhibition assay with TCT
Assay type: biochemical
Conditions: 0.1 mM TCT substrate, pH 7.8, 37°C

Compound | % activity retained at 1 mM (reaction product) [%] | % activity retained at 1 mM [%]
CC(=O)N[C@H]1[C@H](O[C@H]2[C@H](O[C@H](C)C(=O)O)[C@@H](NC(C)=O)[C@@H]3OC[C@H]2O3)O[C@H](CO)[C@@H](O)[C@@H]1O [GlcNAc-anhMurNAc] | 15 | 
CC(=O)N[C@H]1C(O)O[C@H](CO)[C@@H](O)[C@@H]1O (stereo partly drawn) [GlcNAc] |  | 98
CC(=O)N[C@H]1C(O)O[C@H](CO)[C@@H](O)[C@@H]1O[C@H](C)C(=O)O (stereo partly drawn) [MurNAc] |  | 25
